Square brackets hold non-standard residues; d marks the D form. pGlu = O=C1CC[C@@H](C(=O)O)N1

In one assay the test system is Plutella xylostella. Kind of assay: Leaf dip assay (IRAC method 018, Chinese cabbage). The assay is classed as in vivo. The following applies: unformulated peptide 2×10^−4 M in 0.5% DMSO, 8% ACN, 0.1% Tween-80 in water, 120 hours; Acetamiprid 0.005% as comparator; conducted by FERA (FIG. 5). As for the experimental part:
Peptides were tested in a leaf dip bioassay using Chinese cabbage on IRAC method 018 against Plutella xylostella. Peptide concentration at 2×10^−4 M in a solution of 0.5% DMSO, 8% ACN, 0.1% Tween-80 in water. Acetamiprid (pesticide) was tested at 0.005%. Vehicle control comprised 0.5% DMSO, 8% ACN, 0.1% Tween-80 in water. Peptide SB-P-86 was tested by a Contract Research Organisation, FERA Science Ltd. The activity of SB-P-86 is shown in FIG. 5; SB-P-86 has good activity whilst being eco-friendly and targeted to specific pests unlike broad spectrum chemical insecticides such as Acetamiprid.

Another assay deals with Spodoptera frugiperda. Kind of assay: Lepidoptera artificial diet assay. The assay is classed as in vivo. As to conditions: unformulated peptide 1×10^−4M in artificial diet, L1 larvae, one larva per cell, n=10, 168 hrs; compared to negative control vehicle and DDT (FIG. 4). An excerpt: Frontier Lepidoptera Artificial diet was made up by preparing agar at 1% and then mixing it with artificial diet powder. Peptide solution was aliquoted in 10 cells and diet poured straight onto it. The final concentration of the peptide was 1×10^−4M, and each peptide was aliquoted in 10 cells. Once the dict solidified and cooled down, one L1 Spodoptera frugiperda larvae was infested in each cell. The trays were sealed with heat and let larva were allowed to develop for 168 hrs. Finally, pupation and mortality were scored for. Lepidoptera artificial diet assays were performed with SB-P-86, and compared to a negative control vehicle and the insecticide dichlorodiphenyltrichloroethane (DDT).

As for “[Pyr]-LTFTSSWGG-[NH2] ([pGlu]LTFTSSWGG-NH2; SMILES CC(C)C[C@H](NC(=O)[C@@H]1CCC(=O)N1)C(=O)N[C@H](C(=O)N[C@@H](Cc1ccccc1)C(=O)N[C@H](C(=O)N[C@@H](CO)C(=O)N[C@@H](CO)C(=O)N[C@@H](Cc1c[nH]c2ccccc12)C(=O)NCC(=O)NCC(N)=O)[C@@H](C)O)[C@@H](C)O) [SB-P-86, AKH peptide according to the invention]”, the “activity (leaf dip bioassay)” value with Plutella xylostella is “good activity”. Moreover, the “activity (pupation and mortality scored)” value in the assay with Spodoptera frugiperda was “much higher activity”.

The values are drawn from patent US12642274B2, “Insect neuropeptides 8” (Solasta Bio Limited, priority 2023, dated 2026).
